The values that follow come from ChEMBL document CHEMBL4270566, “New aziridine-based inhibitors of cathepsin L-like cysteine proteases with selectivity for the Leishmania cysteine protease LmCPB2.8” (Eur J Med Chem, 2018).

The target in data set [1] is T1, Cathepsin B (Homo sapiens, UniProt P07858). Put plainly: Inhibition of human cathepsin-B using Z-Phe-Arg-AMC as substrate by fluorometric assay.
Data set [2] has as its target T2, Procathepsin L (Homo sapiens, UniProt P07711). Put plainly: Inhibition of human cathepsin-L using Z-Phe-Arg-AMC as substrate by fluorometric assay.
Target sequence in this assay (P07711 whole entry): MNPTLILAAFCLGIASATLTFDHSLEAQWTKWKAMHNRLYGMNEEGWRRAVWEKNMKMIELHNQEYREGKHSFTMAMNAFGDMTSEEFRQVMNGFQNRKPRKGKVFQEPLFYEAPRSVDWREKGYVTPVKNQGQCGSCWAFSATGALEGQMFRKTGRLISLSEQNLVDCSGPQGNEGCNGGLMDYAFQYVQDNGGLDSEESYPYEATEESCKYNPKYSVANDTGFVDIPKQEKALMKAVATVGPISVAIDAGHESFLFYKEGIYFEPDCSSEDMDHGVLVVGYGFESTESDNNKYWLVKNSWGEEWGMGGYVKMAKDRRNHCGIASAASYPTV
In the next data set the target is T3, Falcipain 2 (Plasmodium falciparum, UniProt Q9N6S8).
T3 sequence (Q9N6S8 whole entry): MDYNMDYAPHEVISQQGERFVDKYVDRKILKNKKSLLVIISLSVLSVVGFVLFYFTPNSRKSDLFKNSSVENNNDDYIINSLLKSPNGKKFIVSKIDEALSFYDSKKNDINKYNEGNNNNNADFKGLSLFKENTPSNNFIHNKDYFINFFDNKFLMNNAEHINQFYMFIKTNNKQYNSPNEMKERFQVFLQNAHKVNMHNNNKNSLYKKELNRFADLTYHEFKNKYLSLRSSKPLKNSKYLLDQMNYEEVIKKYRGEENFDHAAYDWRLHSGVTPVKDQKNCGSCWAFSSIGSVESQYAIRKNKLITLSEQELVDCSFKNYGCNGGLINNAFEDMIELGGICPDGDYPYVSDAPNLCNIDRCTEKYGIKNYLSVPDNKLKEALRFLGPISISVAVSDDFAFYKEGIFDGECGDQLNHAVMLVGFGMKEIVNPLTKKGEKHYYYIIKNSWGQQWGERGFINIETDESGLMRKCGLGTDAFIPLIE
Put plainly: Inhibition of Plasmodium falciparum falcipain 2 using Z-Phe-Arg-AMC as substrate by fluorometric assay.

For data set [3], the system named is Leishmania major. Put plainly: Antileishmanial activity against Leishmania major promastigotes at 20 uM. The data set is classed as functional, organism-based.
The subject of data set [4] is Leishmania major. The data set is described as follows: Antileishmanial activity against luciferase-fused Leishmania major amastigotes infected in BMDM after 24 hrs by luminescence assay. It is filed as functional, organism-based.
In the next data set the target is Rhodesain (Trypanosoma brucei rhodesiense, UniProt Q95PM0). Put plainly: Inhibition of Trypanosoma brucei rhodesiense rhodesain using Z-Phe-Arg-AMC as substrate by fluorometric assay.
Chain of Rhodesain (Q95PM0 whole entry): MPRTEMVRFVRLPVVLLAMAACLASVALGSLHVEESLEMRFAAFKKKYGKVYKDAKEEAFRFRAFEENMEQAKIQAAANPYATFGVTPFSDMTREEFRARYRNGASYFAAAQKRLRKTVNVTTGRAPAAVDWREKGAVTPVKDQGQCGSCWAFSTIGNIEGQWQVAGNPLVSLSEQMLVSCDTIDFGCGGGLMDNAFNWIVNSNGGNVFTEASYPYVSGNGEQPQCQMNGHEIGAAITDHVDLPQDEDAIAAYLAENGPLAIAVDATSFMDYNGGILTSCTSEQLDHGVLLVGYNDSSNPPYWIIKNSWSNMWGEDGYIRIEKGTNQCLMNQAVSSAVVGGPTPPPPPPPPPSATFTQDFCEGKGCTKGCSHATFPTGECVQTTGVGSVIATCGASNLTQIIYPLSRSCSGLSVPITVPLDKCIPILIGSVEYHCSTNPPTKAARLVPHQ
In data set [5] the target is Cruzipain (Trypanosoma cruzi) (UniProt P25779). Put plainly: Inhibition of Trypanosoma cruzi cruzain at 20 uM using Z-Phe-Arg-AMC as substrate by fluorometric assay relative to control.
Chain of Cruzipain (Trypanosoma cruzi) (P25779 123-467 limits assumed): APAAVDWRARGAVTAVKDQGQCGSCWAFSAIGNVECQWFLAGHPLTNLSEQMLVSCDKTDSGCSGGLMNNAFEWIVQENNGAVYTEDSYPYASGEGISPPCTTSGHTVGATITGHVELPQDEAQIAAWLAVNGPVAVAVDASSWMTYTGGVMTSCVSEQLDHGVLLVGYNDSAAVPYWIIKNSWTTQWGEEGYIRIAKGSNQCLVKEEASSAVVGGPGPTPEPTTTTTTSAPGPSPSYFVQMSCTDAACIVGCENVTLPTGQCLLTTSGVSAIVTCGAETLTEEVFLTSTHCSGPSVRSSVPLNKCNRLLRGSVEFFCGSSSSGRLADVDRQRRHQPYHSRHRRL
The target of data set [6] is T4, Cathepsin B-like protease (Leishmania major, UniProt P90627).
T4 sequence (P90627 whole entry): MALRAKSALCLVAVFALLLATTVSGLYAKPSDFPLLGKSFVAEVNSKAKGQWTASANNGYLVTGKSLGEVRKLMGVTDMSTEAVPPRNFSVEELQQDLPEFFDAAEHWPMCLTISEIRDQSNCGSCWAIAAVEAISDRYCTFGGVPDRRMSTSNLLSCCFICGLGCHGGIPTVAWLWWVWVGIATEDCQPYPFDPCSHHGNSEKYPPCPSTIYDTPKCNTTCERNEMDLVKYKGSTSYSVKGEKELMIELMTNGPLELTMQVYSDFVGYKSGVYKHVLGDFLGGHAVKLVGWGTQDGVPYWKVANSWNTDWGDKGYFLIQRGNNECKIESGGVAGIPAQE
The data set is described as follows: Inhibition of Leishmania major MHOM/IL/81/FE/BNI His6-tagged CPC expressed in Pichia pastoris using Cbz-Phe-Arg-AMC as substrate by fluorescence spectrometric method. The settings on record: read-out: Ki(app).

Data set [7] relates to Leishmania major. The data set is described as follows: Antileishmanial activity against Leishmania major promastigotes. It is filed as functional, organism-based.
Data set [8] has as its target T2, Procathepsin L. The data set is described as follows: Inhibition of human cathepsin-L at 20 uM using Z-Phe-Arg-AMC as substrate by fluorometric assay relative to control.
Target sequence in this assay (P07711 114-333 limits assumed): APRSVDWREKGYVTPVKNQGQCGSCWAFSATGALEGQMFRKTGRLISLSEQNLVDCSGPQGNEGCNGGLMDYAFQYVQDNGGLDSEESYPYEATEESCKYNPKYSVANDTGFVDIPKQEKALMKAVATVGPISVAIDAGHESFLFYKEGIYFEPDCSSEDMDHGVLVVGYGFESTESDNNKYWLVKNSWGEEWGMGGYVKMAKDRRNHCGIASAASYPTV
A further data set has as its system J774. Put plainly: Cytotoxicity against mouse J774 cells. It is filed as cell-based.
In data set [9] the target is T5, Falcipain 2 (Plasmodium falciparum) (UniProt Q9N6S8).
T5 sequence (whole entry): T3 sequence (Q9N6S8 whole entry)
Put plainly: Inhibition of Plasmodium falciparum falcipain 2 at 20 uM using Z-Phe-Arg-AMC as substrate by fluorometric assay relative to control.

Data set [10] concerns the target T1, Cathepsin B. The data set is described as follows: Inhibition of human cathepsin-B at 20 uM using Z-Phe-Arg-AMC as substrate by fluorometric assay relative to control.
A short description of data set [11]: Inhibition of Leishmania mexicana cathepsin L-like protease CPB2.8 using Z-Phe-Arg-AMC as substrate by fluorometric assay.
Data set [12] concerns the target T5, Falcipain 2 (Plasmodium falciparum). Put plainly: Inhibition of Plasmodium falciparum falcipain 2 assessed as second order inactivation rate constant using Z-Phe-Arg-AMC as substrate by fluorometric assay.
Data set [13] addresses Rhodesain (Trypanosoma brucei rhodesiense) (UniProt Q95PM0). Put plainly: Inhibition of Trypanosoma brucei rhodesiense rhodesain at 20 uM using Z-Phe-Arg-AMC as substrate by fluorometric assay relative to control.
Data set [14] deals with Leishmania mexicana. Put plainly: Inhibition of Leishmania mexicana cathepsin L-like protease CPB2.8 at 20 uM using Z-Phe-Arg-AMC as substrate by fluorometric assay relative to control.
The target in data set [15] is Rhodesain (Trypanosoma brucei rhodesiense) (UniProt Q95PM0). Put plainly: Inhibition of Trypanosoma brucei rhodesiense rhodesain assessed as second order inactivation rate constant using Z-Phe-Arg-AMC as substrate by fluorometric assay.
Chain of Rhodesain (Trypanosoma brucei rhodesiense) (Q95PM0 1-450): as the sequence (Q95PM0 whole entry) above
Data set [16] deals with Leishmania mexicana. The data set is described as follows: Inhibition of Leishmania mexicana cathepsin L-like protease CPB2.8 assessed as second order inactivation rate constant using Z-Phe-Arg-AMC as substrate by fluorometric assay.
Data set [17] deals with Cruzipain (Trypanosoma cruzi) (UniProt P25779). Put plainly: Inhibition of Trypanosoma cruzi cruzain assessed as second order inactivation rate constant using Z-Phe-Arg-AMC as substrate by fluorometric assay.
Data set [18] has as its target T2, Procathepsin L. The data set is described as follows: Inhibition of human cathepsin-L assessed as second order inactivation rate constant using Z-Phe-Arg-AMC as substrate by fluorometric assay.
Target sequence in this assay (P07711 114-333 limits assumed): as the sequence (P07711 114-333 limits assumed) above
A further data set concerns the target Cruzipain (Trypanosoma cruzi, UniProt P25779). The data set is described as follows: Inhibition of Trypanosoma cruzi cruzain using Z-Phe-Arg-AMC as substrate by fluorometric assay.

In general, pKi refers to the Ki on a negative log10 scale, so that one unit is a factor of ten. For orientation: pEC50 means the EC50 on a negative log10 scale, so that one unit is a factor of ten. Read a low pEC50 as a large EC50. In general, inhibition refers to the change of the read-out against control, counted positive when it falls.

SMILES strings stand for the structures. pEC50, pKi: −log10 of the molar value. Activity calls are given as the source filed them. No cut-off for these calls is given here. A value given as a limit tells only on which side of the number the result lay.

Chain of Cruzipain (P25779 whole entry): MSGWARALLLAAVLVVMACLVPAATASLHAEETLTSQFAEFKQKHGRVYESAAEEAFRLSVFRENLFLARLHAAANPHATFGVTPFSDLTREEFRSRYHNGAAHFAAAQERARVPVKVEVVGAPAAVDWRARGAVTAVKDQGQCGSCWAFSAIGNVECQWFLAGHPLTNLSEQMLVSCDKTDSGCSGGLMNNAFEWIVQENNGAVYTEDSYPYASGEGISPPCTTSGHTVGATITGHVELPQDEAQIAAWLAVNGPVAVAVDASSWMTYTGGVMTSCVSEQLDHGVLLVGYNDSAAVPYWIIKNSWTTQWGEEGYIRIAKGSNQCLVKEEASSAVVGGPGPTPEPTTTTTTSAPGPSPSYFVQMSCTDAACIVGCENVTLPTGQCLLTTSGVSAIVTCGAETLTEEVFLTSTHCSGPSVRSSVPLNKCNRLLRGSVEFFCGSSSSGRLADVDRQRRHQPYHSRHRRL

Take `CC(C)C[C@H](NC(=O)OC(C)(C)C)C(=O)N1CCC[C@H]1C(=O)N1[C@@H](C(=O)OCc2ccccc2)[C@@H]1C(=O)OCc1ccccc1`: the values for the negative-log Ki (pKi) on Cathepsin B [1], on Procathepsin L [2] and at Falcipain 2 were 3.94, 6.40 and 6.40, respectively. In addition, in the data set on Leishmania major [3], the outcome was inactive.

Take `CC(C)C[C@H](NC(=O)OC(C)(C)C)C(=O)N1CCC[C@@H]1C(=O)N1[C@@H](C(=O)OCc2ccccc2)[C@@H]1C(=O)OCc1ccccc1`: the pEC50 with Leishmania major [4] is 5.64; in the data set with Leishmania major [7], 4.43. For the same compound, the pKi on Rhodesain was 5.77; in data set [6], 4.74; in data set [11] it was 5.42. The inhibition result (in data set [5]; on Procathepsin L [8]; in data set [9]; at Cathepsin B [10]) was “inactive” each time. In addition, in the data set on J774, the Activity is more than 250 µM.

For `CC(C)C[C@H](NC(=O)OC(C)(C)C)C(=O)N1CCC[C@@H]1C(=O)N1C(C(=O)O)C1C(=O)OCCc1ccccc1` (mixture of isomers), the pKi on Rhodesain was 6.80; on Falcipain 2, 5.90; in data set [11], 6.36. Also, the K turned out to be 185 M⁻¹ s⁻¹ in data set [12], 2970 M⁻¹ s⁻¹ in [15] and 3180 M⁻¹ s⁻¹ in the data set on Leishmania mexicana [16]. Moreover, the inhibition in [13] is more than 50%; in [5], less than 50%; against Procathepsin L [8], less than 50%; in the data set on Leishmania mexicana [14] it was more than 50%; in [9], more than 50%. In addition, the inhibition entry on Cathepsin B [10] was “inactive”.

`CC(C)C[C@H](NC(=O)OC(C)(C)C)C(=O)N1CCC[C@@H]1C(=O)N1C(C(=O)O)C1C(=O)OCC1CCCCC1` (mixture of isomers): the K was determined as 5380 M⁻¹ s⁻¹ in data set [17]; 1280 M⁻¹ s⁻¹ in data set [12]; 232 M⁻¹ s⁻¹ at Procathepsin L [18]; 8230 M⁻¹ s⁻¹ in [15]; 893 M⁻¹ s⁻¹ with Leishmania mexicana [16]. Besides, the pKi is 6.92 on Rhodesain; 5.14 at Procathepsin L [2]; 6.35 on Falcipain 2; 5.75 in [11]; 6.15 on Cruzipain. Further, the inhibition (in data set [13]; in [5]; at Procathepsin L [8]; with Leishmania mexicana [14]; in data set [9]) was more than 50% throughout. Also, the inhibition entry at Cathepsin B [10] was “inactive”.

Regarding `CC(C)[C@H](NC(=O)OC(C)(C)C)C(=O)N1CCC[C@@H]1C(=O)N1[C@@H](C(=O)OCc2ccccc2)[C@@H]1C(=O)OCc1ccccc1`, the pEC50 with Leishmania major [4] was 5.66; in the data set on Leishmania major [7], 4.46. Also, the Activity in the data set with J774 was more than 250 µM.
